Columns and labels:
KCC2 mRNA [1] = assay: KCC2 mRNA in differentiated N2a cells transfected with δ-cat constructs; assay type: cell-based, mouse; conditions: δ-cat construct vs control transfection
Source text: (§1) Plasmid containing human δ-catenin (CTNND2, NM_001288717) open reading frame was obtained from GeneCopeia (EX-A4285-M02) and cloned into pCMV-ENTER vector (Origene PS100001). Site-directed mutagenesis using Phusion DNA Polymerase enzyme (Thermofisher F549L) in conjunction with complementary primers bearing the specific mutation were used to generate the S276A […] mutation S276A. PCR was followed by Dpn1 enzyme digestion to remove parental plasmid DNA. All constructs were verified by sequencing. pCS-CMV-tdTomato plasmid was obtained from Addgene (cat. #30530).
Total RNA was isolated from cultured cell samples using Directzol RNA miniprep kit (ZymoResearch). The protocol includes DNAse digestion to exclude genomic DNA from preparations. […] Gene expression was assessed by quantitative real-time PCR using 2×SYBR Green Master Mix (Qiagen) and a three-step cycling protocol (anneal at 60° C./elongate at 72° C., denature at 95° C.). […] The amount of target messenger RNA (mRNA) in the experimental group relative to that in the control was determined from the resulting fluorescence and threshold values (Ct) using the ΔΔCt method. βIII-tubulin was used as housekeeping gene.
Next, the question of whether δ-cat, when expressed as a spinal transgene in sensory relay neurons, will facilitate analgesia in nerve constriction injury was assessed. […]

nerve injury pain = assay: Nerve constriction injury (PSNL) pain model, mechanical withdrawal; assay type: in vivo, mouse; conditions: AAV9-huSyn, 5×10^9 viral genomes i.t; vs tdTomato control; to d18
Protocol: For pain-related behavior, mechanical allodynia was assessed with von Frey filaments (Ugo Basile, Italy). The mice were placed on a 5×5-mm wire-mesh grid floor in individual compartments to avoid visual stimulation and allowed to adapt for 0.5 h prior to the von Frey test. The von Frey filament was then applied to the middle of the plantar surface of the hind paw with 5 g force. The withdrawal responses following the hind paw stimulation were measured at least three times, and the mechanical allodynia, which was defined as an increase in the number of withdrawal responses to the stimulation, was compared.
Thus, in vivo, KP functions as an analgesic when administered systemically in injury-related pain models.
Next, whether the analgesic effects of KP were mediated centrally at the spinal cord level was assessed.
Mechanical withdrawal was measured thresholds after nerve constriction injury (PSNL) (FIG. 12B and FIG. 12C). […] Thus, δ-cat(S276A) spinal transgenesis via AAV9 is sufficient to evoke analgesia after nerve constriction injury, to lesser degree also with δ-cat(WT). Importantly, δ-cat(S276A) spinal transgenesis was accompanied by increased expression of KCC2 in the SCDH. […] Moreover, our discovery points toward a genetically-encoded approach that can be developed for translation into clinical use as an alternative or complement to KP-related small molecules.

δ-cat = assay: Nuclear transfer of transfected human δ-cat in N2a cells; assay type: cell-based, mouse; conditions: mutation vs δ-cat(WT), without KP
Source text: as §1
To investigate the relevance of δ-cat residue S276, N2a neural cells were studied because these cells transfect at higher efficiency than primary cortical neurons. In our cultures, N2a cells expressed neuronal ßIII-tubulin in elongated processes as determined by immune-labeling as an indicator of their neuronal differentiation. […] This increase in nuclear transfer was very similar to the trafficking we recorded in primary cortical neurons, thus validating the cell line. […] Of note, there was no increase of nuclear transfer of δ-cat(S276A) upon KP treatment (FIG. 8C and FIG. 8D).

KCC2 mRNA [2] = assay: KCC2 mRNA RT-qPCR in microdissected spinal cord dorsal horn; assay type: in vivo, mouse; conditions: AAV9 i.t; vs tdTomato control
Protocol: oligodT-initiated reverse transcription of 1 μg total RNA, DNA-se treated, was subjected to RT-qPCR using primers specific for KCC2 for rat and KCC2 for human sequences, normalized for neuronal βIII-tubulin, as previously described (Yeo et al., 2009, J Neurosci 29:14652-14662). For cultured neurons, total RNA was extracted from pelleted cells, and for spinal cord tissue it was extracted from microdissected lumbar spinal cord dorsal horn.
With the aforementioned findings and in view of the SCDH as the likely site of analgesic action of KP (Coull et al., 2003, Nature 424:938-942; Gagnon et al., 2013, Nat Med 19:1524-1528), SCDH KCC2 expression and function in nerve injury and response to KP was assessed. […] To measure KCC2 mRNA, SCDH Rexed-layers I-II were microdissected with laser capture followed by RT-qPCR. SCDH KCC2 protein expression was measured morphometrically after KCC2 immunolabeling using SCDH laminae I-II as the region-of-interest (FIG. 5B).

KCC2 mRNA [3] = assay: KCC2 mRNA RT-qPCR in rat primary cortical neurons; assay type: cell-based; conditions: rat primary cortical neurons; dose-dependent, FIG. 10
Protocol: Total RNA was isolated from cultured cell samples using Directzol RNA miniprep kit (ZymoResearch). The protocol includes DNAse digestion to exclude genomic DNA from preparations. Total RNA (1 μg) was reverse transcribed using oligo primers (dT) and SuperScriptIII first-strand synthesis kit (Invitrogen). Gene expression was assessed by quantitative real-time PCR using 2×SYBR Green Master Mix (Qiagen) and a three-step cycling protocol (anneal at 60° C./elongate at 72° C., denature at 95° C.). Specificity of primers was verified by dissociation/melting curve for the amplicons when using SYBR Green as a detector. All reactions were performed in triplicates. The amount of target messenger RNA (mRNA) in the experimental group relative to that in the control was determined from the resulting fluorescence and threshold values (Ct) using the ΔΔCt method. βIII-tubulin was used as housekeeping gene. oligodT-initiated reverse transcription of 1 μg total RNA, DNA-se treated, was subjected to RT-qPCR using primers specific for KCC2 for rat and KCC2 for human sequences, normalized for neuronal βIII-tubulin, as previously described (Yeo et al., 2009, J Neurosci 29:14652-14662). For cultured neurons, total RNA was extracted from pelleted cells, and for spinal cord tissue it was extracted from microdissected lumbar spinal cord dorsal horn.

Compound | KCC2 mRNA expression (KCC2 mRNA [1]) | mechanical withdrawal thresholds after PSNL (nerve injury pain) | nuclear transfer of the transfected construct (δ-cat) | KCC2 mRNA in microdissected SCDH (KCC2 mRNA [2]) | KCC2 mRNA expression (KCC2 mRNA [3])
δ-cat(S276A): human δ-catenin S276A mutant transgene (SEQ ID NO:32), as plasmid or AAV9 vector driven by human synapsin promoter | slightly elevated | Significantly less sensitization | increases nuclear transfer | significantly increased | 
O=C1[C@H](Cc2ccc(O)cc2)N2C(=O)CCN(C(=O)NCc3ccccc3)[C@H]2CN1Cc1cccc2ccccc12 [ICG-001] |  |  |  |  | significantly decreases
